Assay results: patent US6916812B2, “Alpha-aminoamide derivatives as melanocortin agonists” (Bristol-Myers Squibb Company, priority 2001, dated 2005)
pIC50: −log10 of the molar value. Read-outs that look alike come from different tables or passages of the source.

Biological target: T1, cloned human MC4R (Homo sapiens, UniProt P32245)
T1 construct: made in house; host or cells: Hi5 insect cells (baculovirus infection); membrane preparation
Assay: Membrane binding assay: competitive inhibition of [125I]NDP-α-MSH binding
Details: for inhibition at 10 µM: read-out: Displacement Rate (%) (at 10 μM)
Protocol: Hi5 cells are infected using the following protocol: Cells at a density of 1×10^6 cells/mL are spun down at 1000 rpm (Beckman GS-6KR centrifuge) for 10 minutes. Cells are resuspended in 10% of their original volume in a sterile 50 mL conical centrifuge tube wrapped with aluminum foil. Virus is added at a Multiplicity of Infection (MOI) of 3 and incubated for 1 hour at room temperature with gentle shaking. […] Cells are spun down in 50 mL conical centrifuge tubes at 1000 rpm for 10 minutes. Each of the resulting pellets are resuspended in 10 mL of cold (4° C.) membrane buffer (25 mM HEPES, pH 7.4, 140 mM NaCl, 1.2 mM MgCl2, 2.5 mM CaCl2, 10 μG/mL Aprotinin, 10 μG/mL Leupeptin) and Dounce homogenized using 10-12 strokes. […] The resulting pellet is resuspended in cold membrane buffer in a total of ¼ of the original volume by vortexing and aspiration using a syringe and 27 gauge needle. Protein content is determined (Bradford, Bio-Rad Protein Assay). Membranes are aliquoted in microcentrifuge tubes and quick frozen in liquid nitrogen. Store at −80° C. until use. The membrane binding buffer is composed of 25 mM HEPES, pH 7.4, 140 mM NaCl, 1.2 mM MgCl2, 2.5 mM CaCl2, 0.1% BSA. […] The mixture is filtered with Brandel Microplate 96 filter apparatus using 96-well GF/B filter presoaked in 1-% polyethyleneimine (Sigma). The filter is washed (4 times with a total of 1 mL per well) with cold wash buffer consisting of 20 mM HEPES, pH 7.4, 5 mM MgCl2. […] 100 μl of Wallac Optiphase Supermix scintillation fluid is added to each well. The top is sealed and the plates are shaken to insure that the filters are thoroughly soaked with fluid. […] Dose-response curves are fitted by […] analyses and IC50 values are calculated using ExcelFit.

[1] = at 10 μM, [125I]NDP-α-MSH displacement

T1 sequence (P32245 whole entry): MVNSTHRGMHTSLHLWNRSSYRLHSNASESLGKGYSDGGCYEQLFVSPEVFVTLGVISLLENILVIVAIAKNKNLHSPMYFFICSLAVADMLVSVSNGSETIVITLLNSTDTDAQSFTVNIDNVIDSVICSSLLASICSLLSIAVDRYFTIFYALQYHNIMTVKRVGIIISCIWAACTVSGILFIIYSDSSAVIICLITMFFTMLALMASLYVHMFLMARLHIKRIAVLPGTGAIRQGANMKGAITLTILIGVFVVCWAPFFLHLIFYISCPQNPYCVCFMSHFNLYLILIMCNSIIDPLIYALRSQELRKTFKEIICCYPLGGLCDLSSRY

Row | inhibition at 10 µM [1] [%] | pIC50 (read-out: MC4R IC50) | pIC50 | SMILES | inhibition at 10 µM [%]
1 | 35 to 70 | < 5.52 | – | N[C@@H](Cc1ccc(OCc2ccccc2)cc1)C(=O)N1CCCN(CC2CCCCC2)CC1 [Example 53] | –
2 | 35 to 70 | < 5.52 | – | COc1cccc(CN2CCCN(C(=O)[C@@H](N)Cc3ccc(OCc4ccccc4)cc3)CC2)c1OC [Example 54] | –
3 | 35 to 70 | < 5.52 | – | N[C@@H](Cc1ccc(OCc2ccccc2)cc1)C(=O)N1CCCN(Cc2cccc(C(F)(F)F)c2)CC1 [Example 55] | –
4 | – | – | < 5.52 | N[C@@H](Cc1ccc(OCc2ccccc2)cc1)C(=O)N1CCCN(Cc2ccc(Br)cc2)CC1 [Example 56] | 35 to 70
5 | 35 to 70 | < 5.52 | – | N[C@@H](Cc1ccc(OCc2ccccc2)cc1)C(=O)N1CCCN(Cc2ccccc2Cl)CC1 [Example 57] | –
6 | 35 to 70 | < 5.52 | – | N[C@@H](Cc1ccc(OCc2ccccc2)cc1)C(=O)N1CCCN(Cc2c(F)cccc2Cl)CC1 [Example 58] | –
7 | 35 to 70 | < 5.52 | – | COc1cc(CN2CCCN(C(=O)[C@@H](N)Cc3ccc(OCc4ccccc4)cc3)CC2)cc(Br)c1OC [Example 59] | –
8 | 35 to 70 | < 5.52 | – | N[C@@H](Cc1ccc(OCc2ccccc2)cc1)C(=O)N1CCCN(Cc2ccccc2)CC1 [Example 60] | –
9 | 35 to 70 | < 5.52 | – | N[C@@H](Cc1ccc(OCc2ccccc2)cc1)C(=O)N1CCCN(Cc2ccc([N+](=O)[O-])cc2)CC1 [Example 61] | –
10 | 35 to 70 | < 5.52 | – | N[C@@H](Cc1ccc(OCc2ccccc2)cc1)C(=O)N1CCCN(Cc2cnc3ccccc3c2)CC1 [Example 62] | –
11 | 35 to 70 | < 5.52 | – | COc1cccc(CC(C)N2CCCN(C(=O)[C@@H](N)Cc3ccc(OCc4ccccc4)cc3)CC2)c1 (stereo partly drawn) [Example 63] | –
12 | 35 to 70 | < 5.52 | – | Cc1cccc(CN2CCCN(C(=O)[C@@H](N)Cc3ccc(OCc4ccccc4)cc3)CC2)c1 [Example 65] | –
13 | 35 to 70 | < 5.52 | – | N[C@@H](Cc1ccc(OCc2ccccc2)cc1)C(=O)N1CCCN(Cc2cc(F)ccc2F)CC1 [Example 66] | –
14 | 35 to 70 | < 5.52 | – | COc1ccc(CC(C)N2CCCN(C(=O)[C@@H](N)Cc3ccc(OCc4ccccc4)cc3)CC2)cc1 (stereo partly drawn) [Example 67] | –
15 | 35 to 70 | < 5.52 | – | N[C@@H](Cc1ccc(OCc2ccccc2)cc1)C(=O)N1CCCN(C2CCN(CCc3ccccc3)CC2)CC1 [Example 68] | –
16 | 35 to 70 | < 5.52 | – | Cc1cccc(CN2CCCN(C(=O)[C@@H](N)Cc3ccc(OCc4ccccc4)cc3)CC2)n1 [Example 69] | –
17 | 35 to 70 | < 5.52 | – | N[C@@H](Cc1ccc(OCc2ccccc2)cc1)C(=O)N1CCCN(Cc2ccc3c(c2)OCCO3)CC1 [Example 70] | –
18 | 35 to 70 | < 5.52 | – | N[C@@H](Cc1ccc(OCc2ccccc2)cc1)C(=O)N1CCCN(C2CCN(Cc3ccccc3)CC2)CC1 [Example 73] | –
19 | 35 to 70 | < 5.52 | – | CC1CCC(N2CCCN(C(=O)[C@@H](N)Cc3ccc(OCc4ccccc4)cc3)CC2)CC1 (stereo partly drawn) [Example 74] | –
20 | 35 to 70 | < 5.52 | – | N[C@@H](Cc1ccc(OCc2ccccc2)cc1)C(=O)N1CCCN(Cc2ccncc2)CC1 [Example 76] | –
21 | 35 to 70 | < 5.52 | – | N[C@@H](Cc1ccc(OCc2ccccc2)cc1)C(=O)N1CCCN(Cc2cc3c(cc2[N+](=O)[O-])OCO3)CC1 [Example 77] | –
22 | 35 to 70 | < 5.52 | – | N[C@@H](Cc1ccc(OCc2ccccc2)cc1)C(=O)N1CCCN(Cc2ccc(F)cc2)CC1 [Example 78] | –
23 | 35 to 70 | < 5.52 | – | CN(C)c1ccc(CN2CCCN(C(=O)[C@@H](N)Cc3ccc(OCc4ccccc4)cc3)CC2)cc1 [Example 79] | –
24 | 91 to 100 | > 5.82 | – | CC(C)(C)c1ccc(Oc2cccc(CN3CCN(C(=O)[C@@H](N)Cc4ccc(OCc5ccccc5)cc4)CC3)c2)cc1 [Example 80] | –

Row | inhibition at 10 µM [1] [%] | pIC50 (read-out: MC4R IC50) | pIC50 | SMILES | inhibition at 10 µM [%]
25 | 91 to 100 | > 5.82 | – | N[C@@H](Cc1ccc(OCc2ccccc2)cc1)C(=O)N1CCN(Cc2ccc(-c3ccc(Cl)cc3)o2)CC1 [Example 81] | –
26 | 91 to 100 | > 5.82 | – | N[C@@H](Cc1ccc(OCc2ccccc2)cc1)C(=O)N1CCN(Cc2ccccc2Sc2ccc(Cl)cc2)CC1 [Example 82] | –
27 | 91 to 100 | > 5.82 | – | N[C@@H](Cc1ccc(OCc2ccccc2)cc1)C(=O)N1CCN(Cc2ccc3c(c2)Cc2ccccc2-3)CC1 [Example 83] | –
28 | 91 to 100 | > 5.82 | – | N[C@@H](Cc1ccc(OCc2ccccc2)cc1)C(=O)N1CCN(Cc2ccc(Oc3ccccc3)cc2)CC1 [Example 84] | –
29 | 91 to 100 | > 5.82 | – | N[C@@H](Cc1ccc(OCc2ccccc2)cc1)C(=O)N1CCN(Cc2cccc(OCc3ccccc3)c2)CC1 [Example 85] | –
30 | 91 to 100 | > 5.82 | – | N[C@@H](Cc1ccc(OCc2ccccc2)cc1)C(=O)N1CCN(Cc2cccc(Oc3cc(Cl)cc(Cl)c3)c2)CC1 [Example 86] | –
31 | 91 to 100 | > 5.82 | – | N[C@@H](Cc1ccc(OCc2ccccc2)cc1)C(=O)N1CCN(Cc2cn(Cc3ccccc3)c3ccccc23)CC1 [Example 87] | –
32 | 91 to 100 | > 5.82 | – | N[C@@H](Cc1ccc(OCc2ccccc2)cc1)C(=O)N1CCN(Cc2ccc(/C=C/c3ccccc3)cc2)CC1 [Example 88] | –
33 | 91 to 100 | > 5.82 | – | CCn1c2ccccc2c2cc(CN3CCN(C(=O)[C@@H](N)Cc4ccc(OCc5ccccc5)cc4)CC3)ccc21 [Example 89] | –
34 | 91 to 100 | > 5.82 | – | N[C@@H](Cc1ccc(OCc2ccccc2)cc1)C(=O)N1CCN(Cc2cccc(Oc3cccc(C(F)(F)F)c3)c2)CC1 [Example 90] | –
35 | 91 to 100 | > 5.82 | – | N[C@@H](Cc1ccc(OCc2ccccc2)cc1)C(=O)N1CCN(Cc2ccc(N(c3ccccc3)c3ccccc3)cc2)CC1 [Example 91] | –
36 | 91 to 100 | > 5.82 | – | CC(C)(C)c1cc(CN2CCN(C(=O)[C@@H](N)Cc3ccc(OCc4ccccc4)cc3)CC2)cc(C(C)(C)C)c1O [Example 92] | –
37 | 91 to 100 | > 5.82 | – | N[C@@H](Cc1ccc(OCc2ccccc2)cc1)C(=O)N1CCN(Cc2cccc(Cl)c2Cl)CC1 [Example 93] | –
38 | 91 to 100 | 5.52 to 5.82 | – | N[C@@H](Cc1ccc(OCc2ccccc2)cc1)C(=O)N1CCN(Cc2ccccc2C(F)(F)F)CC1 [Example 94] | –
39 | 91 to 100 | > 5.82 | – | N[C@@H](Cc1ccc(OCc2ccccc2)cc1)C(=O)N1CCN(Cc2ccc(-c3ccccc3)cc2)CC1 [Example 95] | –
40 | 91 to 100 | > 5.82 | – | CCCCc1ccc(CN2CCN(C(=O)[C@@H](N)Cc3ccc(OCc4ccccc4)cc3)CC2)cc1 [Example 96] | –
41 | 91 to 100 | > 5.82 | – | Cc1ccc(S(=O)(=O)n2cc(CN3CCN(C(=O)[C@@H](N)Cc4ccc(OCc5ccccc5)cc4)CC3)c3ccccc32)cc1 [Example 97] | –
42 | 91 to 100 | 5.52 to 5.82 | – | N[C@@H](Cc1ccc(OCc2ccccc2)cc1)C(=O)N1CCN(Cc2ccc(C(F)(F)F)cc2C(F)(F)F)CC1 [Example 98] | –
43 | 91 to 100 | > 5.82 | – | CCCCCOc1ccc(CN2CCN(C(=O)[C@@H](N)Cc3ccc(OCc4ccccc4)cc3)CC2)cc1 [Example 99] | –
44 | 91 to 100 | > 5.82 | – | N[C@@H](Cc1ccc(OCc2ccccc2)cc1)C(=O)N1CCN(Cc2cc(C(F)(F)F)cc(C(F)(F)F)c2)CC1 [Example 101] | –
45 | 91 to 100 | 5.52 to 5.82 | – | N[C@@H](Cc1ccc(OCc2ccccc2)cc1)C(=O)N1CCN(CC(c2ccccc2)c2ccccc2)CC1 [Example 102] | –
46 | 91 to 100 | > 5.82 | – | N[C@@H](Cc1ccc(OCc2ccccc2)cc1)C(=O)N1CCN(Cc2cccc(Oc3ccccc3)c2)CC1 [Example 103] | –
47 | 91 to 100 | 5.52 to 5.82 | – | CCOc1ccc(CN2CCN(C(=O)[C@@H](N)Cc3ccc(OCc4ccccc4)cc3)CC2)c(OCC)c1C [Example 104] | –
48 | 71 to 90 | > 5.82 | – | N[C@@H](Cc1ccc(OCc2ccccc2)cc1)C(=O)N1CCN(Cc2ccc3ccccc3c2)CC1 [Example 105] | –

Row | SMILES | inhibition at 10 µM [1] [%] | pIC50 (read-out: MC4R IC50) | pIC50 | inhibition at 10 µM [%]
49 | N[C@@H](Cc1ccc(OCc2ccccc2)cc1)C(=O)N1CCCN(Cc2ccc(Cl)c([N+](=O)[O-])c2)CC1 [Example 64] | – | < 5.52 | – | 35 to 70
50 | N[C@@H](Cc1ccc(OCc2ccccc2)cc1)C(=O)N1CCCN(Cc2cc3c(cc2Cl)OCO3)CC1 [Example 71] | – | < 5.52 | – | 35 to 70
51 | N[C@@H](Cc1ccc(OCc2ccccc2)cc1)C(=O)N1CCN(Cc2c3ccccc3cc3ccccc23)CC1 [Example 100] | – | 5.52 to 5.82 | – | 91 to 100
